The record followed here is US9499538B2, “Estrogen receptor modulators and uses thereof” (Seragon Pharmaceuticals, Inc., priority 2012, dated 2016).

One experiment concerns the target T1, ER-α in MCF-7 cells (Homo sapiens, UniProt P03372).
T1 construct: endogenous in cells; host or cells: MCF-7
T1 sequence (P03372 1-595): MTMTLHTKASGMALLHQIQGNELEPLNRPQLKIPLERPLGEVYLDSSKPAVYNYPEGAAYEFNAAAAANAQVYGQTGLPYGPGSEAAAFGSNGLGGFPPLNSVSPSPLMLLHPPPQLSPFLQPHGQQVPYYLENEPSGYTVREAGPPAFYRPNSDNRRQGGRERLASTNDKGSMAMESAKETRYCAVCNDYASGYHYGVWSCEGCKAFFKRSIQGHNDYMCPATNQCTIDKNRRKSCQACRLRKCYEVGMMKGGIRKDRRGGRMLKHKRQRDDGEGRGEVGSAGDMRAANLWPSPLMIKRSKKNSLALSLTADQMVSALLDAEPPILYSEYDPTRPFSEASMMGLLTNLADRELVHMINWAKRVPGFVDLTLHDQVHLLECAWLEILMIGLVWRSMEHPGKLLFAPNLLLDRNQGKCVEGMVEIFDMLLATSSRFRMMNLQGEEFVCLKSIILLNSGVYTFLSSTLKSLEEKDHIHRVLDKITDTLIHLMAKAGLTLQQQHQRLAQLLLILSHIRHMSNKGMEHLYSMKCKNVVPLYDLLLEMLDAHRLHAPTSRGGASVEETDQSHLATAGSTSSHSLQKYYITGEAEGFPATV
The experiment is described as follows: Breast Cancer Cell ER-α In Cell Western Assay (SP1). The class given is cell-based. The note with it: 4 or 24 hr post compound addition; for Emax: MCF7, SP1 antibody, read-out: ER-α In Cell Western Assay (SP1) Max Response; for DC50: SP1 antibody, read-out: ER-α In Cell Western Assay (SP1) IC50. The method, boiled down: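 MCF-7 cells in charcoal-stripped FBS medium, treated with 11-point semilog dilutions (0.3–0.000003 μM final) for 4 or 24 h. Fixed cells immunostained with SP1 antibody (800 nm) and DRAQ5 DNA (700 nm); ER/DNA ratio expressed as % of untreated cells.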

A further experiment has as its system MCF-7 cells. The experiment can be described thus: Breast Cancer Cell Viability Assays (MCF-7, CellTiter-Glo). The class given is cell-based. Conditions: 5 days' compound exposure; for IC50: Homo sapiens, MCF7, 120 h. In outline: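 MCF-7 cells (320/well, RPMI with 10% FBS) exposed for 5 days to an eleven-point semilog series, 0.3–0.000003 μM final. Viability read by CellTiter-Glo luminescence, expressed as background-corrected percent of untreated cells.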

The term IC50 denotes the concentration needed to halve the response being measured. In the case of `N#Cc1cc(C(F)(F)F)ccc1/C(=C(\c1ccc(/C=C/C(=O)O)cc1)c1ccc2[nH]nc(F)c2c1)C1CCC1` [Example 243, (E)-3-(4-((E)-2-(2-Cyano-4-(trifluoromethyl)phenyl)-2-cyclobutyl-1-(3-fluoro-1H-indazol-5-yl)vinyl)phenyl)acrylic acid], at ER-α in MCF-7 cells, the Emax was at least 40% and the DC50 was at most 100 nM. In the experiment on MCF-7 cells, the “MCF7 Viability Assay Max Response” value is on record as “++ (++ = a single % value ≧ 40%)” and the 50% inhibitory concentration (IC50) was at most 100 nM.
For the compound `O=C(O)/C=C/c1ccc(/C(=C(\c2ncc(C(F)(F)F)cc2Cl)C2CCC2)c2ccc3scnc3c2)cc1` [Example 244, (E)-3-(4-((E)-1-(Benzo[d]thiazol-5-yl)-2-(3-chloro-5-(trifluoromethyl)pyridin-2-yl)-2-cyclobutylvinyl)phenyl)acrylic acid], at ER-α in MCF-7 cells, the Emax is at least 40% and the DC50 was at most 100 nM. In the experiment with MCF-7 cells, the “MCF7 Viability Assay Max Response” value is listed as “++ (++ = a single % value ≧ 40%)” and the IC50 was at most 100 nM.
As for `COc1cc(C)c(/C(=C(\c2ccc(/C=C/C(=O)O)cc2)c2cccc3[nH]nc(F)c23)C2CCC2)cn1` [Example 245, (E)-3-(4-((E)-2-Cyclobutyl-1-(3-fluoro-1H-indazol-4-yl)-2-(6-methoxy-4-methylpyridin-3-yl)vinyl)phenyl)acrylic acid], at ER-α in MCF-7 cells, the Emax is at least 40% and the DC50 was at most 100 nM. In the experiment on MCF-7 cells, the “MCF7 Viability Assay Max Response” value is recorded as “++ (++ = a single % value ≧ 40%)” and the IC50 is at most 100 nM.
`O=C(O)/C=C/c1ccc(/C(=C(\c2ncccc2Cl)C2CCC2)c2cccc3[nH]nc(F)c23)cc1` [Example 246, (E)-3-(4-((E)-2-(3-Chloropyridin-2-yl)-2-cyclobutyl-1-(3-fluoro-1H-indazol-4-yl)vinyl)phenyl)acrylic acid]: at ER-α in MCF-7 cells, the Emax was at least 40% and the DC50 is at most 100 nM. Moreover, in the experiment with MCF-7 cells, the “MCF7 Viability Assay Max Response” value was “++ (++ = a single % value ≧ 40%)” and the IC50 is at most 100 nM.
As for `N#Cc1cccnc1/C(=C(\c1ccc(/C=C/C(=O)O)cc1)c1ccc2[nH]nc(F)c2c1)C1CCC1` [Example 247, (E)-3-(4-((E)-2-(3-Cyanopyridin-2-yl)-2-cyclobutyl-1-(3-fluoro-1H-indazol-5-yl)vinyl)phenyl)acrylic acid], on ER-α in MCF-7 cells, the Emax is at least 40% and the DC50 is at most 100 nM. In the experiment with MCF-7 cells, the “MCF7 Viability Assay Max Response” value was “++ (++ = a single % value ≧ 40%)” and the IC50 is at most 100 nM.
In the case of `N#Cc1n[nH]c2ccc(/C(=C(/c3ccc(F)cc3Cl)C3CCC3)c3ccc(/C=C/C(=O)O)cc3)cc12` [Example 248, (E)-3-(4-((E)-2-(2-Chloro-4-fluorophenyl)-1-(3-cyano-1H-indazol-5-yl)-2-cyclobutylvinyl)phenyl)acrylic acid], on ER-α in MCF-7 cells, the Emax is at least 40% and the DC50 was at most 100 nM. In addition, in the experiment on MCF-7 cells, the “MCF7 Viability Assay Max Response” value was “++ (++ = a single % value ≧ 40%)” and the IC50 is at most 100 nM.
For `N#Cc1cc(Cl)cnc1/C(=C(\c1ccc(/C=C/C(=O)O)cc1)c1ccc2[nH]nc(F)c2c1)C1CCC1` [Example 249, (E)-3-(4-((E)-2-(5-Chloro-3 cyanopyridin-2-yl)-2-cyclobutyl-1-(3-fluoro-1H-indazol-5-yl)vinyl)phenyl)acrylic acid], on ER-α in MCF-7 cells, the Emax was at least 40% and the DC50 is at most 100 nM. Further, in the experiment on MCF-7 cells, the “MCF7 Viability Assay Max Response” value was “++ (++ = a single % value ≧ 40%)” and the IC50 was at most 100 nM.
Turning to `O=C(O)/C=C/c1ccc(/C(=C(\c2ncc(C(F)(F)F)cc2Cl)C2CCC2)c2ccc3[nH]nc(F)c3c2)cc1` [Example 250, (E)-3-(4-((E)-2-(3-Chloro-5-(trifluoromethyl)pyridin-2-yl)-2-cyclobutyl-1-(3-fluoro-1H-indazol-5-yl)vinyl)phenyl)acrylic acid], on ER-α in MCF-7 cells, the Emax is at least 40% and the DC50 was at most 100 nM. Also, in the experiment with MCF-7 cells, the “MCF7 Viability Assay Max Response” value was “++ (++ = a single % value ≧ 40%)” and the IC50 is at most 100 nM.
Take `O=C(O)/C=C/c1ccc(/C(=C(\c2ncc(F)cc2Cl)C2CCC2)c2ccc3[nH]nc(F)c3c2)cc1` [Example 251, (E)-3-(4-((E)-2-(3-Chloro-5-fluoropyridin-2-yl)-2-cyclobutyl-1-(3-fluoro-1H-indazol-5-yl)vinyl)phenyl)acrylic acid]: at ER-α in MCF-7 cells, the Emax was at least 40% and the DC50 was at most 100 nM. Further, in the experiment with MCF-7 cells, the “MCF7 Viability Assay Max Response” value is “++ (++ = a single % value ≧ 40%)” and the IC50 was at most 100 nM.
In the case of `O=C(O)/C=C/c1ccc(/C(=C(\c2ccc(F)cc2Cl)C2CCC2)c2ccc3[nH]nc(C(F)(F)F)c3c2)cc1` [Example 252, (E)-3-(4-((E)-2-(2-Chloro-4-fluorophenyl)-2-cyclobutyl-1-(3-(trifluoromethyl)-1H-indazol-5-yl)vinyl)phenyl)acrylic acid], at ER-α in MCF-7 cells, the Emax was at least 40% and the DC50 was at most 100 nM. In addition, in the experiment on MCF-7 cells, the “MCF7 Viability Assay Max Response” value is recorded as “++ (++ = a single % value ≧ 40%)” and the IC50 is above 100 nM.
With `O=C(O)/C=C/c1ccc(/C(=C(\c2ncc(F)cc2Cl)C2CCC2)c2ccc3[nH]nc(F)c3c2)cc1F` [Example 253, (E)-3-(4-((Z)-2-(3-Chloro-5-fluoropyridin-2-yl)-2-cyclobutyl-1-(3-fluoro-1H-indazol-5-yl)vinyl)-2-fluorophenyl)acrylic acid], at ER-α in MCF-7 cells, the Emax is at least 40% and the DC50 is at most 100 nM. Moreover, in the experiment with MCF-7 cells, the “MCF7 Viability Assay Max Response” value is listed as “++ (++ = a single % value ≧ 40%)” and the IC50 is at most 100 nM.
In the case of `O=C(O)/C=C/c1ccc(/C(=C(\c2ncc(Cl)cc2Cl)C2CCC2)c2ccc3[nH]nc(F)c3c2)cc1F` [Example 254, (E)-3-(4-((Z)-2-Cyclobutyl-2-(3,5-dichloropyridin-2-yl)-1-(3-fluoro-1H-indazol-5-yl)vinyl)-2-fluorophenyl)acrylic acid], at ER-α in MCF-7 cells, the Emax is at least 40% and the DC50 was at most 100 nM. Also, in the experiment on MCF-7 cells, the “MCF7 Viability Assay Max Response” value is given as “++ (++ = a single % value ≧ 40%)” and the half-maximal inhibitory concentration (IC50) is at most 100 nM.
Consider `CCOC(=O)/C=C/c1ccc(/C(=C(\c2ncc(Cl)cc2Cl)C2CCC2)c2ccc3[nH]nc(F)c3c2)cc1F` [Example 255, (E)-Ethyl 3-(4-((Z)-2-cyclobutyl-2-(3,5-dichloropyridin-2-yl)-1-(3-fluoro-1H-indazol-5-yl)vinyl)-2-fluorophenyl)acrylate], for which, on ER-α in MCF-7 cells, the Emax is at least 40% and the DC50 is at most 100 nM. Also, in the experiment with MCF-7 cells, the “MCF7 Viability Assay Max Response” value is listed as “+ (+ = a single % value < 40%)” and the IC50 was at most 100 nM.
On to `COc1ccc(/C(=C(\c2ccc(/C=C/C(=O)O)c(F)c2)c2ccc3[nH]nc(F)c3c2)C2CCC2)c(Cl)c1` [Example 256, (E)-3-(4-((Z)-2-(2-Chloro-4-methoxyphenyl)-2-cyclobutyl-1-(3-fluoro-1H-indazol-5-yl)vinyl)-2-fluorophenyl)acrylic acid], for which, on ER-α in MCF-7 cells, the Emax was at least 40% and the DC50 is at most 100 nM. Besides, in the experiment with MCF-7 cells, the “MCF7 Viability Assay Max Response” value is reported as “++ (++ = a single % value ≧ 40%)” and the IC50 is at most 100 nM.
Take `O=C(O)/C=C/c1ccc(/C(=C(\c2ncc(Cl)cc2C(F)(F)F)C2CCC2)c2ccc3[nH]nc(F)c3c2)cc1` [Example 257, (E)-3-(4-((E)-2-(5-Chloro-3-(trifluoromethyl)pyridin-2-yl)-2-cyclobutyl-1-(3-fluoro-1H-indazol-5-yl)vinyl)phenyl)acrylic acid]: at ER-α in MCF-7 cells, the Emax was at least 40% and the DC50 was at most 100 nM. Besides, in the experiment with MCF-7 cells, the “MCF7 Viability Assay Max Response” value is reported as “++ (++ = a single % value ≧ 40%)” and the IC50 was at most 100 nM.
Regarding `O=C(O)/C=C/c1ccc(/C(=C(\c2cnc(C(F)(F)F)cc2C(F)(F)F)C2CCC2)c2ccc3[nH]nc(F)c3c2)cc1` [Example 258, (E)-3-(4-((E)-2-(4,6-bis(Trifluoromethyl)pyridin-3-yl)-2-cyclobutyl-1-(3-fluoro-1H-indazol-5-yl)vinyl)phenyl)acrylic acid], at ER-α in MCF-7 cells, the Emax is at least 40% and the DC50 was at most 100 nM. In the experiment with MCF-7 cells, the “MCF7 Viability Assay Max Response” value is “++ (++ = a single % value ≧ 40%)” and the IC50 was at most 100 nM.
Take `O=C(O)/C=C/c1ccc(/C(=C(\c2ncccc2Cl)C2CCC2)c2ccc3[nH]nc(F)c3c2)cn1` [Example 259, (E)-3-(5-((Z)-2-(3-Chloropyridin-2-yl)-2-cyclobutyl-1-(3-fluoro-1H-indazol-5-yl)vinyl)pyridin-2-yl)acrylic acid]: on ER-α in MCF-7 cells, the Emax was at least 40% and the DC50 was at most 100 nM. Further, in the experiment with MCF-7 cells, the “MCF7 Viability Assay Max Response” value is “++ (++ = a single % value ≧ 40%)” and the IC50 is at most 100 nM.
